Experimental data reported in patent US10464957B2, “Oxidized lipids and methods of use thereof” (Vascular Biogenics Ltd., priority 2014, dated 2019).

What was measured:
[1] = system: LPS (TLR4) stimulated Mo-Derived DCs; experiment: Cytokine secretion ELISA, LPS (TLR4)-stimulated monocyte-derived dendritic cells; type: cell-based, human; settings: 1 hour pretreatment, 24 hours 100 ng/ml LPS
Experimental: To generate monocyte-derived DC (Mo-DCs), CD14+ monocytes were counted, washed and seeded (10^6/ml) in medium containing RPMI-1640, L-glutamine, β-mercaptoethanol, 10% fetal calf serum (FCS), sodium pyruvate, non-essential amino acids, 0.01 M HEPES, antibiotics (penicillin, streptomycin), 50 ng/ml human granulocyte-macrophage colony-stimulating factor (GMCSF) and 20 ng/ml human IL-4 (both from PeproTech Asia, Israel). Medium was replaced every 2-3 days. Mo-DCs were collected 5-6 days post-culture, counted and seeded (10^6/ml). Cells were pretreated for 1 hour with VB-201 or VB-703, followed by 24 hours activation with 100 ng/ml LPS from Escherichia coli strain 055:B5 (Sigma, Israel) to induce cytokine production. IL-6 concentration (FIG. 14) and IL-12/23p40 (FIG. 15) concentration in supernatant were measured by ELISA (R&D systems, Cat. No. DY1240 and Cat. No. DY206, […]). Cells activated with solvent (0.5% ethanol in PBS) were used as a control.

[2] = system: PGN (TLR2)-induced signaling in human monocytes (THP-1 cell line); experiment: PGN (TLR2)-induced signaling, western blot; type: cell-based; settings: 20 min pretreatment, 20 μg/ml PGN for 15 minutes
Experimental: The monocytic THP-1 cell line was purchased from the American Type Tissue Culture Collection (ATCC Cat. No. TIB-202). Cells (10^6/ml) were pretreated for 20 min with VB-201 or VB-701 at the doses indicated in FIG. 3, or with solvent, followed by activation with 20 μg/ml peptidoglycan (PGN) (InvivoGen, San Diego, Calif.) for 15 minutes, or were untreated (“Unt”). Cells were washed and resuspended in lysis buffer containing 1:100 dithiothreitol (DTT), phosphatase and protease inhibitors (Thermo Scientific). Samples were loaded onto a precast Criterion TGX gel (Bio-Rad, Hemel Hempstead, UK) and transferred onto nitrocellulose membrane. Blots were blocked with 5% milk or BSA in Tris buffered saline and Tween 20 (TBST) for 1 h, followed by incubation with primary and secondary antibodies. Membranes were developed using an ECL kit (Thermo Scientific). The following antibodies were used for immunoblotting:
Primary antibodies: p-p38 (Cat. No. 4511; 1:1000) and p-IKK (Cat. No. 2697; 1:1000) were from Cell Signaling Technology (Danvers, Mass., USA). p-ERK1/2 (Cat. No. M8159; 1:10000) was purchased from Sigma (Israel). αTubulin served as a loading control.
(§1) Secondary antibodies: HRP donkey anti-rabbit (1:5000) and HRP goat anti-mouse (1:3000) were from Jackson ImmunoResearch (West Grove, Pa., USA). HRP donkey anti-goat (1:5000) was from Santa Cruz Biotechnology.

[3] = system: LPS (TLR4)-induced signaling in human monocytes (primary CD14+); experiment: LPS (TLR4)-induced signaling, western blot; type: cell-based; settings: for formation of p-IKK, p-ERK and p-p38 induced by LPS: 20 min pretreatment, 15 min activation with 100 ng/ml LPS
Experimental: Venous blood samples were obtained from healthy male donors in compliance with the Institutional Review Board at the Sheba Medical Center, Ramat Gan, Israel. PBMCs were isolated on Ficoll-Paque PLUS (GE Healthcare, Uppsala, Sweden) using 50 ml Leucosep tubes (Greiner Bio-One, Frickenhausen, Germany). Cells were washed in PBS (Kibbutz Beit Haemek, Israel) and incubated at 4° C. for 15 minutes in a buffer containing PBS and 0.5% bovine serum albumin (BSA) with human CD14 microbeads (Miltenyi Biotec, Bergisch Gladbach, Germany).
(§2) Cells (10^6/ml) were pretreated for 20 min with VB-201 (1-hexadecyl-2-(4′-carboxy)butyl-glycero-3-phosphocholine or 1-hexadecyl-2-(4′-carboxybutyl)-glycerol-3-phosphocholine) or VB-701 at the doses indicated in FIG. 2, or with solvent (Sol), followed by 15 min activation with 100 ng/ml lipopolysaccharide (LPS) or were untreated (Unt). Cells were washed and resuspended in lysis buffer containing 1:100 dithiothreitol (DTT), phosphatase and protease inhibitors (Thermo Scientific). Samples were loaded onto a precast Criterion TGX gel (Bio-Rad, Hemel Hempstead, UK) and transferred onto nitrocellulose membrane. Blots were blocked with 5% milk or BSA in Tris buffered saline and Tween 20 (TBST) for 1 h, followed by incubation with primary and secondary antibodies. Membranes were developed using an ECL kit (Thermo Scientific). The following antibodies were used for immunoblotting:
Primary antibodies: p-p38 (Cat. No. 4511; 1:1000) and p-IKK (Cat. No. 2697; 1:1000) were from Cell Signaling Technology (Danvers, Mass., USA). p-ERK1/2 (Cat. No. M8159; 1:10000) was purchased from Sigma (Israel). αTubulin (Tub) served as a loading control.
as §1
as §2, with “VB-201” for “VB-201 (1-hexadecyl-2-(4′-carboxy)butyl-glycero-3-phosphocholine”, “VB-703” for “1-hexadecyl-2-(4′-carboxybutyl)-glycerol-3-phosphocholine) or VB-701 at the doses indicated in FIG. 2, or with solvent (Sol),”, “LPS.” for “lipopolysaccharide (LPS) or were untreated (Unt).”
Primary antibodies: p-p38 (Cat. No. 4511; 1:1000) and p-IKK (Cat. No. 2697; 1:1000) were from Cell Signaling Technology (Danvers, Mass., USA). p-ERK1/2 (Cat. No. M8159; 1:10000) was purchased from Sigma (Israel). Heat shock protein (HSP) 90 (Cat. No. 13119; 1:500) was from Santa Cruz Biotechnology (Santa Cruz, Calif., USA).

TLR4 complex = target: T1, TLR4 complex (Homo sapiens, UniProt O00206+Q9Y6Y9); experiment: LPS binding inhibition assay (biotin-LPS, FACS)
T1 construct: endogenous in cells; probably the human primary monocytes of b454
Experimental: To assess interference with lipopolysaccharide (LPS) binding, VB-201 or VB-703 were incubated for 20 min with cells (10^6/ml) after which 100 ng/ml of biotin-LPS (InvivoGen) was added for an additional 15 minutes, all at 4° C. Cells were washed, resuspended in FACS buffer and analyzed on a FACS-Calibur device.

T1 sequence (O00206 24-839): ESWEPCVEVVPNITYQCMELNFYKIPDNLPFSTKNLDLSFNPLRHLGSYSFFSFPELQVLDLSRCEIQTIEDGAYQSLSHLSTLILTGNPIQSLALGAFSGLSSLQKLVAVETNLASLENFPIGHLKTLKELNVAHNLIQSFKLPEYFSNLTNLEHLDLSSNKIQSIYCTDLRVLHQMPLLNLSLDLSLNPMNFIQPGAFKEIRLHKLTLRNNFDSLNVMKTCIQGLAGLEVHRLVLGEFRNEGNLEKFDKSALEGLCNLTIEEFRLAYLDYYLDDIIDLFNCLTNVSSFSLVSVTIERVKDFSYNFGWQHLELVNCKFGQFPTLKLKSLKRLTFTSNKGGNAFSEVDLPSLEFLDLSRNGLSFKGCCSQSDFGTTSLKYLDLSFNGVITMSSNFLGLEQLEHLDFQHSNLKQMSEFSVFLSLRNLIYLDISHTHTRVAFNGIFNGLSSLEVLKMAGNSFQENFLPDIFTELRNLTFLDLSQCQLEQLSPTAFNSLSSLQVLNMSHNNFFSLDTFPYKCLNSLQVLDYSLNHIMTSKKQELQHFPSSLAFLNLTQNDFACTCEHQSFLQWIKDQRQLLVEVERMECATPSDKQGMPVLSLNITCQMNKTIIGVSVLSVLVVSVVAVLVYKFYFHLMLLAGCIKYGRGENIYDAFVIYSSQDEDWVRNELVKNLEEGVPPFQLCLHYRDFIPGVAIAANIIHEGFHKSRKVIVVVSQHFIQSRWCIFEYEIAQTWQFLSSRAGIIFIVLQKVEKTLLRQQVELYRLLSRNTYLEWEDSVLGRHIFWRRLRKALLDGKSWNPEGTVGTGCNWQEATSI
T1 sequence (Q9Y6Y9 17-160 limits assumed): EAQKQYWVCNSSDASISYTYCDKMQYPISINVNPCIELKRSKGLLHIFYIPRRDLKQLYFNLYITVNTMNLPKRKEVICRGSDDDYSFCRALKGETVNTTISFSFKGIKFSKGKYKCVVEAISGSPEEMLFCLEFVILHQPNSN

Row | Structure (SMILES) | IL-6 secretion [1] | IL-12p40 secretion [1] | formation of p-IKK, p-ERK and p-p38 induced by PGN [2] | formation of p-IKK, p-ERK and p-p38 induced by LPS ([3]; western blot) | formation of p-ERK and p-AKT induced by LPS ([3]; western blot, LPS activation) | IC50 (TLR4 complex; biotin-LPS 100 ng/ml, 4° C., human primary monocytes) | efficacy in inhibiting TLR4-driven protein phosphorylation, fold higher than VB-201 ([3]; compared with VB-201) | LPS-biotin binding to human monocytes (primary CD14+) (TLR4 complex; biotin-LPS 100 ng/ml, FACS) | IC50 of LPS binding, fold lower than that of VB-201 (TLR4 complex; compared with VB-201)
1 | CCCCCCCCCCCCCCCCOCC(COP(=O)([O-])OCC[N+](C)(C)C)OCCCCC(=O)O (stereo not shown) [VB-201, 1-hexadecyl-2-(4′-carboxy)butyl-glycero-3-phosphocholine, reference compound] | inhibit | inhibit | inhibit | inhibit | inhibit | ~12 µM |  |  | 
2 | CCCCCCCCCCC(CCCCCCCC)COC[C@H](COP(=O)([O-])OCC[n+]1ccccc1)OCCCCC(=O)O (stereo partly drawn) [VB-703, (R)-1-(2′-octyl)dodecyl-2-(4′-carboxy)butyl-sn-glycero-3-phosphoric acid pyridiniumethyl ester] | inhibit | inhibit | inhibit | inhibited |  |  | ≥ 10 fold | inhibit | > 10 fold
